Test [1] concerns the target Cystathionine gamma-lyase (Homo sapiens, UniProt P32929). In words: Human CSE enzyme assay. Conditions: pH 7; 37 °C. The protocol:
500 nM hCSE in optimal buffer (50 mM Hepes, pH 7.0; final concentration) was incubated with compound for 45 min in the 192-tandem-well plate before adding substrate (5 mM L-cysteine; final concentration). The reaction was then incubated at 37 °C for 60 min before the absorbance at 413 nm of DTNB was measured.

The target in test [2] is T1, Dopa decarboxylase (Aromatic L-amino acid decarboxylase), isoform CRA_a (Homo sapiens, UniProt Q53Y41).
T1 sequence (Q53Y41 whole entry): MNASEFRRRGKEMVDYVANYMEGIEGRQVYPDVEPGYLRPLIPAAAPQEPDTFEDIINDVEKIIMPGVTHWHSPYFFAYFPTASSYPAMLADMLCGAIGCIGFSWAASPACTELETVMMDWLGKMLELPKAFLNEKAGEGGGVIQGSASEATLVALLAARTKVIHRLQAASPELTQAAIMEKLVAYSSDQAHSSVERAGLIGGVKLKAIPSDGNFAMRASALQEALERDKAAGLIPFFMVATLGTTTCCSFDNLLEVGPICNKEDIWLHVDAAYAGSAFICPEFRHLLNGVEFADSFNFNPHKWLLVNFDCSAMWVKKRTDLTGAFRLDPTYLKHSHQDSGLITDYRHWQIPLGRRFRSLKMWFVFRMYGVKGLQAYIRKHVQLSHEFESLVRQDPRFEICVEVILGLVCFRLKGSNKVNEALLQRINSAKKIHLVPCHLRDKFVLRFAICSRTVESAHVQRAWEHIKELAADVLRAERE
In words: DDC-MDH-PEPC-Linked assay. To be noted: pH 8.05; 37 °C. The protocol:
To the wells of a 384-well polypropylene plate, 1 µL DMSO (control) or test compounds at indicated concentrations were added, followed by the addition of 24.5 µL enzyme mix [50 mM Tris-HCl, 50 mM NaCl, 0.015% (w/v) BSA, 5 mM MgCl2, 2 mM β-mercaptoethanol, 760 µM NADH, 330 nM PEPC, 100 µM PLP and 284 nM hDDC, pH 8.05], and 24.5 µL substrate mix [50 mM Tris-HCl containing 50 mM NaCl, 0.015% (w/v) BSA, 5 mM MgCl2, 2 mM β-mercaptoethanol, 10 mM PPPA, 0.49 U MDH and 1.5 mM L-DOPA, pH 8.05]. The plate was sealed and incubated for 1 h in 37 °C. The OD was taken at 340 nm.

Bounds are passed on as bounds.

For orientation: IC50 means the midpoint of a concentration-inhibition curve. A higher IC50 goes with weaker potency.

Cystathionine gamma-lyase, sequence (P32929 whole entry): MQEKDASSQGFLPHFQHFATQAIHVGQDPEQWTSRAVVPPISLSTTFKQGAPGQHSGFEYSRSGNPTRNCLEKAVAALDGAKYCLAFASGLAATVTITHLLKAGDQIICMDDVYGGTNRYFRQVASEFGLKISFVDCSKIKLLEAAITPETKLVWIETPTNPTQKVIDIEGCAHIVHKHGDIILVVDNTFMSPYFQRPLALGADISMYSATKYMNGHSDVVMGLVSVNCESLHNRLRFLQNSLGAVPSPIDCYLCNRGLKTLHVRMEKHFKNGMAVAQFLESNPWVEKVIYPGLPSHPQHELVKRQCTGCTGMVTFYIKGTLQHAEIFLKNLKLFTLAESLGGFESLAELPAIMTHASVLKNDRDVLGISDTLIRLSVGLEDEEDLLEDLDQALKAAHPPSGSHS

On to `COc1ccc(CCCc2ccc(O)c(OC)c2)c(O)c1` [1-(2-hydroxy-4-meth-oxyphenyl)-3-(4-hydroxy-3-methoxyphenyl)propane (12)], for which the IC50 in test [1] and in test [2] was above 200 µM in each case.

For `COc1cc(OC)c2c(c1)O[C@@H](c1ccc(O)c(O)c1)CC2` [(2R)-3′,4′-Dihydroxy-5,7-methoxyflavan (14)], the IC50 in test [1] and in test [2] was above 200 µM each time.

For `COc1ccc2c(c1)O[C@@H](c1ccc(O)c(O)c1)CC2` [(2R)-3′,4′-Dihydroxy-7-methoxyflavan (13)], the IC50 in test [1] and in test [2] was above 200 µM in each case.

On to `COc1cc(CC=C(c2cc(O)c(OC)cc2O)c2c(OC)cc3c(c2O)CCC(c2ccc(O)c(O)c2)O3)ccc1O` (stereo not drawn) [(+)-Euonyquinone C (9)], for which the IC50 in test [1] was above 200 µM; in test [2] it was 100 µM.

Consider `COc1cc(CCCc2ccc(OC)c(O)c2OC)ccc1O` [Broussonin F (11)], for which the 50% inhibitory concentration (IC50) in test [1] and in test [2] was above 200 µM in each case.

In the case of `COc1cc(CC=C(c2cc(O)c(OC)cc2O)c2cc(CCCc3ccc(O)c(OC)c3)c(O)cc2OC)ccc1O` [Combrequinone B (6)], the IC50 in test [1] was above 200 µM; in test [2], 21.6 µM.

In the case of `COc1cc(CCCc2cc(C(CCc3ccc(O)c(OC)c3)c3cc(OC)c(OC)cc3O)c(OC)cc2O)ccc1O` (stereo not drawn) [Euonydiarylpropane A (1)], the IC50 was above 200 µM in test [1] and 100 µM in test [2].

`COc1cc(CCCc2cc(C(CCc3ccc(O)c(OC)c3)c3cc(OC)c(OC)cc3O)c(O)cc2OC)ccc1O` (stereo not drawn) [Euonydiarylpropane B (2)]: the IC50 in test [1] was above 200 µM; in test [2], 100 µM.

`COc1ccc(C(CCc2ccc(O)c(OC)c2)c2cc(CCCc3ccc(O)c(OC)c3)c(O)cc2OC)c(O)c1` (stereo not drawn) [Euonydiarylpropane C (3)]: the IC50 in test [1] and in test [2] was above 200 µM in each case.

Regarding `COc1cc(CCCc2cc(C(CCc3ccc(O)c(OC)c3)c3cc(O)c(OC)cc3OC)c(O)cc2OC)ccc1O` (stereo not drawn) [Euonydiarylpropane D (4)], the IC50 in test [1] and in test [2] was above 200 µM throughout.

As for `COC1=CC(=O)C(CC(=O)Cc2ccc(O)c(OC)c2)=C(c2cc(CCCc3ccc(O)c(OC)c3)c(OC)cc2O)C1=O` [Euonyquinone A (5)], the IC50 in test [1] is above 200 µM; in test [2] it was 11.5 µM.

For `COc1cc(CC=C(c2cc(O)c(OC)cc2O)c2c(OC)cc3c(c2O)CCC(c2ccc(O)c(OC)c2)O3)ccc1O` (stereo not drawn) [Euonyquinone B (7)], the IC50 is above 200 µM in test [1] and 50 µM in test [2].

As to `COc1cc(CCCc2ccc(O)cc2OC)ccc1O` [Griffithane B (10)], the IC50 in test [1] and in test [2] was above 200 µM each time.

Take `C[C@](N)(Cc1ccc(O)c(O)c1)C(=O)O` [SMR000059170]: the values for the IC50 in test [1] and in test [2] were 3000 µM and 1200 µM, respectively.

(Values after BindingDB's records for doi:10.1021/cb500009r (Shanghai Center For Systems Biomedicine, 2014).)
